From PubChem BioAssay AID2060484 (Molecular Pharmacology Branch, DTP, NCI, 2025)

Tested on: SUM149PT spheroids with HUVEC/MSC, viability
Assay: Anticancer human tumor SUM149PT cell line growth inhibition [GQUAD];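 also: spheroids exposed to drugs for seven days before readout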;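 as to viability, T/C: percent viability relative to DMSO vehicle control taken as 100%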
Settings: for IC50: curve of first compound; for viability, T/C: stronger effect = lower value
In short: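 Multi-cell-type spheroids of tumor cells with HUVEC and mesenchymal stem cells, treated with drug combinations. Concentrations descend in half-log steps from near clinical Cmax, or from 10 microM where Cmax is unknown; viability read-out.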

[1] = second compound 0.0316 µM, first compound 0.0316 µM
[2] = second compound 0.0316 µM, first compound 0.316 µM
[3] = second compound 0.1 µM, first compound 0.0316 µM
[4] = second compound 0.1 µM, first compound 0.316 µM
[5] = second compound 0.316 µM, first compound 0.0316 µM
[6] = second compound 0.316 µM, first compound 0.316 µM
[7] = second compound 1 µM, first compound 0.0316 µM
[8] = second compound 1 µM, first compound 0.316 µM
[9] = second compound 3.16 µM, first compound 0.0316 µM
[10] = second compound 3.16 µM, first compound 0.316 µM
[11] = second compound 10 µM, first compound 0.0316 µM
[12] = second compound 10 µM, first compound 0.316 µM
[13] = second compound 0.0316 µM, first compound 0.1 µM
[14] = second compound 0.0316 µM, first compound 1 µM
[15] = second compound 0.0316 µM, first compound 3.16 µM
[16] = second compound 0.0316 µM, first compound 10 µM
[17] = second compound 0.1 µM, first compound 0.1 µM
[18] = second compound 0.1 µM, first compound 1 µM
[19] = second compound 0.1 µM, first compound 3.16 µM
[20] = second compound 0.1 µM, first compound 10 µM
[21] = second compound 0.316 µM, first compound 0.1 µM
[22] = second compound 0.316 µM, first compound 1 µM
[23] = second compound 0.316 µM, first compound 3.16 µM
[24] = second compound 0.316 µM, first compound 10 µM
[25] = second compound 1 µM, first compound 0.1 µM
[26] = second compound 1 µM, first compound 1 µM
[27] = second compound 1 µM, first compound 3.16 µM
[28] = second compound 1 µM, first compound 10 µM
[29] = second compound 3.16 µM, first compound 0.1 µM
[30] = second compound 3.16 µM, first compound 1 µM
[31] = second compound 3.16 µM, first compound 3.16 µM
[32] = second compound 3.16 µM, first compound 10 µM
[33] = second compound 10 µM, first compound 0.1 µM
[34] = second compound 10 µM, first compound 1 µM
[35] = second compound 10 µM, first compound 3.16 µM
[36] = second compound 10 µM, first compound 10 µM

## CC[C@@]1(O)C(=O)OCc2c1cc1n(c2=O)Cc2cc3c(CN(C)C)c(O)ccc3nc2-1 + CN(C)c1ccc(Nc2c3ccc(NC(=O)CCN4CCCC4)cc3nc3cc(NC(=O)CCN4CCCC4)ccc23)cc1
Second compound 0.0316 µM
  IC50: > 0.316 µM
Second compound 0.1 µM
  IC50: > 0.316 µM
Second compound 0.316 µM
  IC50: > 0.316 µM
Second compound 1 µM
  IC50: 0.206 µM
Second compound 3.16 µM
  IC50: 0.084 µM
Second compound 10 µM
  IC50: 0.0981 µM
Second compound 0.0316 µM, first compound 0.000999 µM
  viability, T/C: 110%
Second compound 0.0316 µM, first compound 0.00316 µM
  viability, T/C: 87.6%
Second compound 0.0316 µM, first compound 0.00999 µM
  viability, T/C: 109%
[1]
  viability, T/C: 82.2%
Second compound 0.0316 µM, first compound 0.0999 µM
  viability, T/C: 55.9%
[2]
  viability, T/C: 57%
Second compound 0.1 µM, first compound 0.000999 µM
  viability, T/C: 102%
Second compound 0.1 µM, first compound 0.00316 µM
  viability, T/C: 102%
Second compound 0.1 µM, first compound 0.00999 µM
  viability, T/C: 103%
[3]
  viability, T/C: 88.4%
Second compound 0.1 µM, first compound 0.0999 µM
  viability, T/C: 56%
[4]
  viability, T/C: 57.2%
Second compound 0.316 µM, first compound 0.000999 µM
  viability, T/C: 95.6%
Second compound 0.316 µM, first compound 0.00316 µM
  viability, T/C: 92.1%
Second compound 0.316 µM, first compound 0.00999 µM
  viability, T/C: 90%
[5]
  viability, T/C: 83.6%
Second compound 0.316 µM, first compound 0.0999 µM
  viability, T/C: 51.6%
[6]
  viability, T/C: 52.9%
Second compound 1 µM, first compound 0.000999 µM
  viability, T/C: 87.8%
Second compound 1 µM, first compound 0.00316 µM
  viability, T/C: 88.2%
Second compound 1 µM, first compound 0.00999 µM
  viability, T/C: 80.2%
[7]
  viability, T/C: 78.3%
Second compound 1 µM, first compound 0.0999 µM
  viability, T/C: 54%
[8]
  viability, T/C: 47.6%
Second compound 3.16 µM, first compound 0.000999 µM
  viability, T/C: 94.7%
Second compound 3.16 µM, first compound 0.00316 µM
  viability, T/C: 84.4%
Second compound 3.16 µM, first compound 0.00999 µM
  viability, T/C: 102%
[9]
  viability, T/C: 69.7%
Second compound 3.16 µM, first compound 0.0999 µM
  viability, T/C: 47.9%
[10]
  viability, T/C: 45.1%
Second compound 10 µM, first compound 0.000999 µM
  viability, T/C: 92.5%
Second compound 10 µM, first compound 0.00316 µM
  viability, T/C: 90%
Second compound 10 µM, first compound 0.00999 µM
  viability, T/C: 86.4%
[11]
  viability, T/C: 74.2%
Second compound 10 µM, first compound 0.0999 µM
  viability, T/C: 48.7%
[12]
  viability, T/C: 44.9%

## COc1ncnc(C2CC2)c1-c1ncc2cnn(Cc3ccc(-c4nc(C(F)(F)F)cn4C(C)C)cc3)c2n1 + CN(C)c1ccc(Nc2c3ccc(NC(=O)CCN4CCCC4)cc3nc3cc(NC(=O)CCN4CCCC4)ccc23)cc1
Second compound 0.0316 µM
  IC50: > 10 µM
Second compound 0.1 µM
  IC50: > 10 µM
Second compound 0.316 µM
  IC50: > 10 µM
Second compound 1 µM
  IC50: > 10 µM
Second compound 3.16 µM
  IC50: > 10 µM
Second compound 10 µM
  IC50: 8.65 µM
[1]
  viability, T/C: 101%
[13]
  viability, T/C: 91.8%
[2]
  viability, T/C: 84.1%
[14]
  viability, T/C: 97.1%
[15]
  viability, T/C: 89.8%
[16]
  viability, T/C: 98.6%
[3]
  viability, T/C: 94.8%
[17]
  viability, T/C: 83.2%
[4]
  viability, T/C: 88.7%
[18]
  viability, T/C: 80.2%
[19]
  viability, T/C: 93.4%
[20]
  viability, T/C: 90.5%
[5]
  viability, T/C: 90.5%
[21]
  viability, T/C: 90.5%
[6]
  viability, T/C: 75.7%
[22]
  viability, T/C: 74.1%
[23]
  viability, T/C: 88%
[24]
  viability, T/C: 89.1%
[7]
  viability, T/C: 79%
[25]
  viability, T/C: 88.3%
[8]
  viability, T/C: 83.5%
[26]
  viability, T/C: 67.9%
[27]
  viability, T/C: 64.2%
[28]
  viability, T/C: 75.5%
[9]
  viability, T/C: 82.6%
[29]
  viability, T/C: 77.8%
[10]
  viability, T/C: 65.1%
[30]
  viability, T/C: 74.1%
[31]
  viability, T/C: 72.1%
[32]
  viability, T/C: 66.9%
[11]
  viability, T/C: 84.1%
[33]
  viability, T/C: 69%
[12]
  viability, T/C: 70.5%
[34]
  viability, T/C: 71.8%
[35]
  viability, T/C: 71.8%
[36]
  viability, T/C: 46.9%

## O=C(c1cc(Cc2n[nH]c(=O)c3ccccc23)ccc1F)N1CCN(C(=O)C2CC2)CC1 + CN(C)c1ccc(Nc2c3ccc(NC(=O)CCN4CCCC4)cc3nc3cc(NC(=O)CCN4CCCC4)ccc23)cc1
Second compound 0.0316 µM
  IC50: > 10 µM
Second compound 0.1 µM
  IC50: > 10 µM
Second compound 0.316 µM
  IC50: > 10 µM
Second compound 1 µM
  IC50: > 10 µM
Second compound 3.16 µM
  IC50: > 10 µM
Second compound 10 µM
  IC50: > 10 µM
[1]
  viability, T/C: 104%
[13]
  viability, T/C: 103%
[2]
  viability, T/C: 94.5%
[14]
  viability, T/C: 100%
[15]
  viability, T/C: 102%
[16]
  viability, T/C: 88.8%
[3]
  viability, T/C: 95%
[17]
  viability, T/C: 101%
[4]
  viability, T/C: 102%
[18]
  viability, T/C: 104%
[19]
  viability, T/C: 98%
[20]
  viability, T/C: 81.4%
[5]
  viability, T/C: 87.6%
[21]
  viability, T/C: 93.5%
[6]
  viability, T/C: 101%
[22]
  viability, T/C: 101%
[23]
  viability, T/C: 111%
[24]
  viability, T/C: 82%
[7]
  viability, T/C: 85.3%
[25]
  viability, T/C: 86.6%
[8]
  viability, T/C: 89.9%
[26]
  viability, T/C: 104%
[27]
  viability, T/C: 92.4%
[28]
  viability, T/C: 66.3%
[9]
  viability, T/C: 93.7%
[29]
  viability, T/C: 91%
[10]
  viability, T/C: 90.5%
[30]
  viability, T/C: 94.2%
[31]
  viability, T/C: 95.2%
[32]
  viability, T/C: 70.5%
[11]
  viability, T/C: 78.8%
[33]
  viability, T/C: 81.9%
[12]
  viability, T/C: 81.9%
[34]
  viability, T/C: 90.4%
[35]
  viability, T/C: 86.3%
[36]
  viability, T/C: 64.5%
